Measured values as given in ChEMBL document CHEMBL1154893, “Altaicalarins A-D, cytotoxic bisabolane sesquiterpenes from Ligularia altaica” (J Nat Prod, 2010).
Values after ≈ are worked out from the molar mass of the structure shown.

Columns and labels:
[1] = system: MCF7; test: Cytotoxicity against human MCF7 cells after 48 hrs by SRB assay; details: MCF7, 48 h
[2] = system: A549; test: Cytotoxicity against human A549 cells after 48 hrs by SRB assay; details: A549, 48 h
[3] = Cytotoxicity against human vincristine resistant KBVIN cells after 48 hrs by SRB assay
[4] = system: KB; test: Cytotoxicity against human KB cells after 48 hrs by SRB assay

SMILES | EC50 [1] | EC50 [2] | EC50 [3] | EC50 [4]
C=C(C(CC(O)C(C)(C)O)OC(=O)/C(C)=C\C)[C@H]1C[C@H]2O[C@@]2(C)C(OC(=O)/C(C)=C\C)[C@H]1OC(C)=O (stereo partly drawn) | > 20 µg/mL | > 20 µg/mL | > 20 µg/mL | > 20 µg/mL
C=C(C(CC1OC1(C)C)OC(=O)/C(C)=C\C)[C@H]1C[C@H]2O[C@@]2(C)C[C@H]1OC(=O)/C(C)=C\C (stereo partly drawn) | > 20 µg/mL | > 20 µg/mL | 11.4 µg/mL (≈ 26.4 µM) | > 20 µg/mL
C=C(c1cc(O)c(C)c(O)c1OC(C)=O)C(CC=C(C)C)OC(=O)/C(C)=C\C (stereo not drawn) [ALTAICALARIN A] | 0.8 µg/mL (≈ 2.06 µM) | 3.4 µg/mL (≈ 8.75 µM) | 0.9 µg/mL (≈ 2.32 µM) | 1 µg/mL (≈ 2.57 µM)
C=C(c1ccc(C)c(O)c1O)C(CC=C(C)C)OC(=O)/C(C)=C\C (stereo not drawn) [ALTAICALARIN B] | 10.8 µg/mL (≈ 32.7 µM) | > 20 µg/mL | 15.9 µg/mL (≈ 48.1 µM) | 11.8 µg/mL (≈ 35.7 µM)
C=C(C(CC=C(C)C)OC(=O)/C(C)=C\C)[C@@H]1C[C@@H]2O[C@]2(C)C(=O)[C@H]1OC(C)=O (stereo partly drawn) [ALTAICALARIN C] | 7.7 µg/mL (≈ 19.7 µM) | 11.4 µg/mL (≈ 29.2 µM) | 7.6 µg/mL (≈ 19.5 µM) | 10.4 µg/mL (≈ 26.6 µM)
C=C(C(CC1OC1(C)C)OC(=O)/C(C)=C\C)[C@@H]1[C@H](OC(=O)/C(C)=C\C)[C@@H]2O[C@]2(C)C(=O)[C@H]1OC(C)=O (stereo partly drawn) [ALTAICALARIN D] | > 20 µg/mL | > 20 µg/mL | 18.9 µg/mL (≈ 37.5 µM) | > 20 µg/mL
COc1cc([C@@H]2c3cc4c(cc3[C@@H](O[C@@H]3O[C@@H]5CO[C@@H](C)O[C@H]5[C@H](O)[C@H]3O)[C@H]3COC(=O)[C@H]23)OCO4)cc(OC)c1O [ETOPOSIDE] | 16.4 µg/mL (≈ 27.9 µM) | 0.4 µg/mL (≈ 0.68 µM) | 8.8 µg/mL (≈ 15 µM) | 3.9 µg/mL (≈ 6.63 µM)
